From patent US9260391B2, “Hypoglycemic dihydropyridones” (The Trustees of Columbia University in the City of New York, priority 2008, dated 2016)
Entries after “also recorded” stand apart in the source; their conditions may differ.

How the values were obtained:
Type in all cases: in vivo, rat
Lewis rats [1] = assay: IPGTT of analogs HG-1 to HG-11, compounds given orally (FIG. 15); details: 2 mg/kg orally; for hypoglycemic activity in IPGTT compared with TBZ / HG-3: FIG. 15
Experimental: FIG. 15 is a bar graph showing the results of testing various analogs HG-1 to HG-11 in IPGTT glucose tolerance tests in rats. Results for TBZ, emetine, and olanzapine are also shown. Lewis rats fasted for 6 hours were administered the compounds orally (30 min, 2 mg/kg) followed by intraperitoneal glucose injection (0 min, […]), and plasma glucose levels were monitored for 120 mins. Results are presented as AUC percentage of the vehicle. Error bars indicate SEM (n=5).
Racemic HG-2 and its diastereoisomer HG-1 were evaluated for their ability to improve glucose tolerance by performing intraperitoneal glucose tolerance tests (IPGTT) in rats. IPGTT testing is described above. See also Murthy, R., et al., Eur. J. Nucl. Med. Mol. Imaging, 2008, 35(4), 790-797.

Lewis rats [2] = assay: Intraperitoneal glucose tolerance test (IPGTT), compounds given i.v.; details: for area under the curve from glucose tolerance tests: each series a separate experiment; for AUC Blood Glucose IPGTT: 2 mg/kg (2.0 μg/gbw) i.v.; for blood glucose levels around sixty minutes following glucose challenge: i.v. injection at 2 mg/kg body weight
Experimental: (§1) All animal studies were reviewed and approved by the Institutional Animal Care and Use Committee (IACUC) at Columbia University's Medical School. All experiments were performed in accordance with the IACUC approved procedures. Normal male Lewis rats (100-400 grams) were obtained from Taconic (Taconic Inc., Germantown, N.Y.) and were housed under conditions of controlled humidity (55±5%), temperature (23±1° C.), and lighting (light on: 06.00-18.00 hours) with free access to standard laboratory rat chow and water. Rats were handled daily to minimize nonspecific stress for more than 7 days before the experiments began. In most experiments, it was necessary to measure blood glucose in fasting animals. For these groups, food was removed at the beginning of the light cycle, 6 hours before glucose levels were measured. Diabetes mellitus was induced by intraperitoneal injection of streptozotocin (Sigma Chemical Co., St. Louis, Mo.) (25 to 50 mg/kg) to animals (100 to 150 grams) that had been fasted 4 hours to enhance the effectiveness of STZ treatment.
The STZ solution was prepared fresh by dissolving it in 0.1 M citrate buffer (pH 5.5) and terminally sterile filtered. Control Lewis age and weight matched rats received a 0.5 ml/kg citrate vehicle alone via intraperitoneal injection. Sixty minutes prior to intraperitoneal glucose tolerance testing (IPGTT), anesthesia of male Lewis rats was induced with isoflurane (3-4% in oxygen) and maintained with 1-2% isoflurane in oxygen. Anaesthetized rats were administered TBZ and other indicated compounds at the indicated dose by intravenous (i.v.) injection using the penile vein. TBZ was dissolved in neat sterile dimethylsulfoxide (DMSO) and diluted (always more than 10 fold) in sterile saline. Rats received injections of vehicle alone (10% DMSO in saline) or reserpine (in saline). Animals recovered fully before receiving IPGTT.
(§2) Blood samples were collected from a superficial blood vessel in the tails of the rats following 6 hours of fasting between 12:00 noon and 2:00 p.m. The fasting blood glucose (BG) levels of the rats were measured using an Accu-Check blood glucose monitoring system (Roche Diagnostics, Sommerville, N.J.). Intraperitoneal glucose tolerance tests (IPGTT) were performed in 6 hour fasting un-anaesthetized animals. Briefly, after baseline BG measurements, animals received an intraperitoneal (i.p.) injection of 1 gram glucose/kilogram body weight. To minimize stress during the procedure, rats were handled by the same operator during acclimatization and later during weighing and IPGTT. Blood samples (approximately 30 μl) were collected at baseline and then again 15, 30, 60, 90, and 120 minutes following i.p. glucose administration. BG concentrations were measured immediately on these samples and the remainder processed.
(§3) Plasma was immediately separated by centrifugation at 3000×g for 15 minutes and then stored at −20° C. until analysis. Insulin and glucagon concentration measurements in rat plasma were performed by ELISA as per the manufacturer's instructions using kits from Linco Research Inc. (St. Charles, Mo.) and Alpco Diagnostics (Salem, N.H.), respectively. To validate the test, saline injections were performed by the same method. […] The area under the IPGTT glucose concentration×time curve (AUCIPGTT) was calculated by the trapezoidal rule. The area under the insulin or glucagon concentration×time curve (AUC INS or AUC GCG) was calculated in a similar manner.
Anaesthetized rats were administered TBZ, THB, butamol, reserpine, emetine, or HG-6 at a dose of approximately 2-3 mg/kg body weight by intravenous (i.v.) injection using the penile vein. TBZ, THB, butamol, reserpine, emetine, and HG-6 were each separately dissolved in neat sterile dimethylsulfoxide (DMSO) and diluted (always more than 10 fold) in sterile saline. Rats received injections of vehicle alone (10% DMSO in saline) or reserpine (in saline). Animals recovered fully before receiving IPGTT. […]

diabetic Lewis rats = assay: IPGTT in streptozotocin-induced diabetic Lewis rats
Experimental: as §1, with “In most experiments, it was necessary to measure blood glucose in fasting animals.” left out, “Diabetes mellitus was induced by intraperitoneal injection of streptozotocin (Sigma Chemical Co., St. Louis, Mo.) (25 to 50 mg/kg) to animals (100 to 150 grams) that had been fasted 4 hours to enhance the effectiveness of STZ treatment.” left out
Blood samples were collected from a superficial blood vessel in the tails of the rats following 6 hours of fasting between 12:00 noon and 2:00 p.m. The fasting blood glucose (BG) levels of the rats were measured using an Accu-Check blood glucose monitoring system (Roche Diagnostics, Sommerville, N.J.). […] BG concentrations were measured immediately on these samples and the remainder processed.
Plasma was immediately separated by centrifugation at 3000×g for 15 minutes and then stored at −20° C. until analysis. […] The area under the IPGTT glucose concentration×time curve (AUCIPGTT) was calculated by the trapezoidal rule. […]

[3] = test system: dopamine content of brain and pancreas tissue; assay: Dopamine measurements in brain and pancreas extracts (ELISA)
Experimental: Anaesthetized rats received an intravenous injection of TBZ and were sacrificed one hour later. Euthanasia was performed by exsanguination of the anesthetized animal. Brain and pancreas were harvested as quickly as possible and frozen at −80° C. until use. Frozen tissue was pulverized in a liquid nitrogen cooled mortar and extracted in 0.01 N HCl. The tissue extract was centrifuged at 10,000×g at 4° C. to remove debris and the total protein was estimated by reading the absorbance at 280 nm. The concentration of dopamine in the extract was estimated using an ELISA kit from Rocky Mountain Diagnostics (Colorado Springs, Colo.) per the manufacturer's instructions and normalized to the extract protein concentration.

Lewis rats [4] = assay: Plasma insulin and glucagon during IPGTT (ELISA)
Experimental: as §2, §3

[5] = single dose 2-3 mg/kg body weight i.v., FIG. 12
[6] = 2 mg/kg body weight i.v., Lewis rats 9-11 weeks old, vs vehicle (DMSO)

## COc1ccc([C@@H]2C[C@H](O)[C@@H](CC(C)C)CN2)cc1OC [HG-1]
Lewis rats [1]
  hypoglycemic activity in IPGTT compared with TBZ / HG-3: less potent than TBZ

## COc1ccc(C2CC(O)C(CC(C)C)CN2)cc1OC (stereo not shown) [HG-2]
Lewis rats [1]
  hypoglycemic activity in IPGTT compared with TBZ / HG-3: less potent than TBZ

## COc1ccc(C2CC(=O)CC(=O)N2)cc1OC (stereo not shown) [HG-5]
Lewis rats [1]
  hypoglycemic activity in IPGTT compared with TBZ / HG-3: loss of the improved activity

## COc1cc2c(cc1OC)C1CC(N)C(CC(C)C)CN1CC2 (stereo not shown) [HG-6, 3-isobutyl-9,10-dimethoxy-2,3,4,6,7,11b-hexahydro-1H-pyrido[2,1-a]isoquinolin-2-amine]
Lewis rats [2]; [5]
  blood glucose excursion during IPGTT: consistently reduced the blood glucose excursion
  area under the curve from glucose tolerance tests: consistently suppressed the area under the curve; also recorded: depress the area under the curve

## COc1ccc(C2CC(OCC(C)C)=CC(=O)O2)cc1OC (stereo not shown) [HG-7]
Lewis rats [1]
  hypoglycemic activity in IPGTT compared with TBZ / HG-3: loss of the improved activity

## COc1cc2c(cc1OC)C1CC(OCC(C)C)=CC(=O)N1CC2 (stereo not shown) [HG-8]
Lewis rats [1]
  hypoglycemic activity in IPGTT compared with TBZ / HG-3: active but less potent

## COC1=CC(=O)OC(c2ccc(OC)c(OC)c2)C1 (stereo not shown) [HG-9]
Lewis rats [1]
  hypoglycemic activity in IPGTT compared with TBZ / HG-3: loss of the improved activity

## COC1=CC(=O)N2CCc3cc(OC)c(OC)cc3C2C1 (stereo not shown) [HG-10]
Lewis rats [1]
  hypoglycemic activity in IPGTT compared with TBZ / HG-3: active but less potent

## COc1cc2c(cc1OC)[C@@H]1CC(=O)[C@@H](CC(C)C)CN1CC2 [TBZ, tetrabenazine]
Lewis rats [2]
  AUC Blood Glucose IPGTT: smaller area under the curve; also recorded: lower than that for vehicle and butamol treated animals
  blood glucose levels around sixty minutes following glucose challenge: returned to control or near normal levels
Lewis rats [2]; [6]
  blood glucose excursion during IPGTT: reduced the blood glucose excursion
Lewis rats [2]; 2 mg/kg body weight i.v., Lewis rats 9-11 weeks old, vs vehicle (DMSO), listed as Tetrabenazine
  blood glucose excursion during IPGTT: reduced the blood glucose excursion
Lewis rats [2]; Lewis rats 9-11 week old, TBZ 1.6 μg/gm body weight i.v., vs vehicle
  blood glucose excursion during IPGTT: reduces the blood glucose excursion
Lewis rats [2]; Lewis rats 9-11 week old, TBZ 1.6 μg/gm body weight i.v., vs vehicle, listed as tetrabenazine
  blood glucose excursion during IPGTT: significant change in the size and shape of the glucose disposition curve
Lewis rats [2]; TBZ 1.6 μg/gbw
  reduction of the glucose excursion (areas under the curve during IPGTT): 40-50%
Lewis rats [2]; TBZ 1.6 μg/gm, series of experiments n=4, p<0.05
  AUC IPGTT of controls compared with TBZ treated animals: significantly higher
Lewis rats [2]; after TBZ administration, before glucose challenge, data not shown
  baseline fasting glucose concentration: no reproducible differences were observed
Lewis rats [2]; [5]
  blood glucose excursion during IPGTT: consistently reduced the blood glucose excursion
  area under the curve from glucose tolerance tests: consistently suppressed the area under the curve; also recorded: depress the area under the curve
Lewis rats [2]; varying doses of TBZ, normalized to each animal's untreated baseline IPGTT
  dose dependence of AUC IPGTT: complex dose response effect; also recorded: reduces the blood glucose excursion in a dose dependent manner
Diabetic Lewis rats; STZ-diabetic Lewis rats 5-8 weeks, TBZ 1.6 μg/gm i.v.
  blood glucose excursion / area under the curve in IPGTT, diabetic rats: smaller area under the curve; also recorded: reduces the blood glucose excursion during IPGTT in diabetic Lewis rats
Diabetic Lewis rats; around sixty minutes following i.v. injection of TBZ
  blood glucose levels before i.p. glucose challenge, diabetic rats: returned to control or near normal levels
[3]; TBZ 1.6 μg/gm body weight i.v., one hour later, normalized to total protein
  dopamine content of brain and pancreas tissue: reduces the dopamine content of brain and pancreas tissue
[3]; one hour after injection of 10 μg/gm body weight of tetrabenazine
  dopamine content of pancreas and brain: significantly depleted the dopamine content of pancreas and brain
Lewis rats [4]; TBZ 1.6 μg/gm, Lewis rats 9-11 week old, during IPGTT
  glucose-stimulated insulin and glucagon secretion in vivo: alters glucose-stimulated insulin and glucagon secretion in vivo
Lewis rats [4]; following TBZ and glucose challenge
  plasma insulin levels relative to vehicle treated controls: greater
Lewis rats [4]; following i.v. TBZ administration and glucose challenge
  plasma glucagon levels relative to controls: generally lower
Lewis rats [4]; four out of five experiments
  AUC INS with TBZ treatment relative to AUC INS of control animals: greater than two fold
Lewis rats [4]; prior to glucose challenge
  baseline plasma concentrations of glucagon: sometimes lower than controls, although these differences did not reach statistical significance
Lewis rats [4]; three of five experiments
  AUC GCG, less than AUC GCG of control animals: 75%-85%
Lewis rats [1]; 30 min before i.p. glucose, relative to vehicle, n=5
  decrease of the AUC IPGTT (area under the blood glucose concentration-time curve): 26%

## COc1ccc2c(c1OC)CN1CCc3cc4c(cc3C1C2)OCO4 (stereo not shown) [THB, tetrahydroberberine]
Lewis rats [2]
  AUC Blood Glucose IPGTT: smaller area under the curve; also recorded: lower than that for vehicle and butamol treated animals
  blood glucose levels around sixty minutes following glucose challenge: returned to control or near normal levels
Lewis rats [2]; [6]
  blood glucose excursion during IPGTT: reduce the blood glucose excursion

## CC(C)(C)NCC(O)c1ccc(O)c(CO)c1 (stereo not shown) [butamol]
Lewis rats [2]
  AUC Blood Glucose IPGTT: smaller area under the curve
  blood glucose levels around sixty minutes following glucose challenge: returned to control or near normal levels
Lewis rats [2]; [6]
  blood glucose excursion during IPGTT: did not reduce the blood glucose excursion; also recorded: does not reduce the blood glucose excursion

## COc1ccc(-c2cc(OCC(C)C)cc(=O)[nH]2)cc1OC [compound 17]
Lewis rats [1]
  hypoglycemic activity in IPGTT compared with TBZ / HG-3: loss of the improved activity

## CC[C@H]1CN2CCc3cc(OC)c(OC)cc3[C@@H]2C[C@@H]1C[C@H]1NCCc2cc(OC)c(OC)cc21 [emetine]
Lewis rats [2]
  AUC Blood Glucose IPGTT: smaller area under the curve; also recorded: lower than that for vehicle and butamol treated animals
  blood glucose levels around sixty minutes following glucose challenge: returned to control or near normal levels
Lewis rats [2]; [6]
  blood glucose excursion during IPGTT: reduce the blood glucose excursion
Lewis rats [2]; [5]
  blood glucose excursion during IPGTT: consistently reduced the blood glucose excursion
  area under the curve from glucose tolerance tests: consistently suppressed the area under the curve
Lewis rats [2]; single dose 2-3 mg/kg body weight i.v., FIG. 12, listed as emitine
  area under the curve from glucose tolerance tests: depress the area under the curve

## COC(=O)[C@H]1[C@H]2C[C@@H]3c4[nH]c5cc(OC)ccc5c4CCN3C[C@H]2C[C@@H](OC(=O)c2cc(OC)c(OC)c(OC)c2)[C@@H]1OC [reserpine]
Lewis rats [2]
  AUC Blood Glucose IPGTT: smaller area under the curve
  blood glucose levels around sixty minutes following glucose challenge: returned to control or near normal levels
Lewis rats [2]; [6]
  blood glucose excursion during IPGTT: reduce the blood glucose excursion
Lewis rats [2]; reserpine single concentration 25 μg/gbm, data not shown
  blood glucose and AUC IPGTT relative to untreated controls: persistent hyperglycemia and larger AUC IPGTT
